A short description of experiment [1]: Affinity to Cl- by 1H NMR titration with Bu4N+Cl- in DMSO-d6/H2O (200:1). The experiment is classed as binding. The following applies: 1H NMR titration with Bu4N^+Cl^– in DMSO-d6/H2O (200 : 1) at 298 K; new compound. Here is the method: The binding constant to chloride was assessed using 1H NMR titrations with n-Bu4N+Cl- in DMSO-d6/H2O (200:1). The hygroscopic guest n-Bu4N+Cl- and the host compounds were dried under high vacuum to remove residual solvents or water prior to solution preparation. The concentration of the host was around 1 mM in all titrations; the concentration of guest and the volumes of the aliquots of guest solution added to the host solution were varied o ver the experiments. The guest solutions contained the same concentrations of host as the starting host solution (i.e., n-Bu4N+Cl- was dissolved in a solution of ~1 mM host in DMSO-d6/H2O (200:1)), […]
NMR titration binding studies were performed using a Varian 500b NMR spectrometer at 298
K. The shift of both NH signals in DMSO were fitted to 1:1 binding model using a least -squares fitting procedure in a custom -made Excel spreadsheet .
Figure S6. Downfield region of the 1H NMR spectra from the titration of tetrabutylammonium chloride into 12 […]
(1 picture or pasted object on this page, not shown here)

In experiment [2] the test system is YFP-FRT cells. As to the kind of experiment: Persistence of anion transport by fluorescence microscopy in YFP-FRT cells. It is filed as cell-based, Fischer rat. The following applies: 10 μM, continuous perfusion. As to the method:
the PBS bathing cells 10 minutes prior to PBS iodide addition, whereas UTP was added to cells with the PBS iodide solution. Fluorescence was measured for 14 seconds; 2 seconds before and 12 seconds after injection of 110 µl PBS iodide solution (137 mM Cl- replaced by I-) into each well (to obtain a final concentration of I- of 100 mM).
We expressed cell fluorescence values (F) relative to the fluorescence value immediately before I- injection (F0), excluding the initial decrease, which likely represents the quenching of extracellular YFP released from cells and signal reduction accompanying the increase in solution volume bathing cells. To quantify anion transport by test anionophores, we determined the initial slope of the fluorescence decay following I - addition by fitting first order exponential functions to the last 12 seconds of each fluorescence recording. […]
fluorescence microscopy as described previously.10 In brief, YFP-FRT cells were washed 3x with PBS before transfer to a perfusion chamber mounted on the stage of a Leica DM IRB microscope. […] Any anionophore not incorporated into YFP-FRT cell membranes was removed from the chamber by perfusion with PBS when fluorescence measurements commenced. […]
Fluorescence data from 5 – 9 cells per coverslip were analysed with 4 coverslips tested for each anionophore. […]

On the set-up of experiment [3]: method as in ref [20], [23] (Reference column). The following applies: extraction of Et4N^+Cl^– from water into chloroform at 303 K; ref [20], [23]; cited from earlier work.
On the set-up of experiment [4]: method as in ref [20], [21], [23], [24], [29] (Reference column). The following applies: transporter preincorporated in LUVs (70% POPC + 30% cholesterol), 25 mM NaCl gradient, 225 mM NaNO3; ref [20], [21], [23], [24], [29]; cited from earlier work.

The structures appear in SMILES notation.

As for `CCOC(=O)[C@]12CC[C@@H](NC(=S)Nc3ccc([N+](=O)[O-])cc3)C[C@@H]1C[C@@H](NC(=S)Nc1ccc([N+](=O)[O-])cc1)CC2` [Compound 12], the “K a to Cl^– in DMSO” value in experiment [1] is 1.7 × 10^3 M^–1. Besides, the “duration of anion transport after anionophore delivery” value in experiment [2] is “up to 2 h”.
As for `CCOC(=O)[C@]12CC[C@@H](NC(=S)Nc3cc(C(F)(F)F)cc(C(F)(F)F)c3)C[C@@H]1C[C@@H](NC(=S)Nc1cc(C(F)(F)F)cc(C(F)(F)F)c1)CC2` [Compound 15], the “K a to Cl^– in CHCl3” value in experiment [3] is on record as 4.7 × 10^8 M^–1. Further, in experiment [4], the “Specific initial rate [I]” value was 2600 s^–1.

The values above are taken from article PMC6984391, “Anion carriers as potential treatments for cystic fibrosis: transport in cystic fibrosis cells, and additivity to channel-targeting drugs” (Chemical Science, 2019).
